# Reference: patent US20190247376A1, “NICOTINIC ACETYLCHOLINE RECEPTOR AGONIST ATTENUATES ILC2-DEPENDENT AIRWAY HYPERREACTIVITY” (University of Southern California, priority 2016, published 2019)
# What was measured:
# α4β2 subtype of nAChR = α4β2 subtype of nAChR (Homo sapiens, UniProt P17787+P43681); conditions: cited from earlier work
# α7 subtype of nAChR = α7 subtype of nAChR (Homo sapiens, UniProt P36544); conditions: cited from earlier work
# [1] = test system: BALB/cByJ and α7nAChR−/− mice; assay: IL-33-induced AHR in WT and α7nAChR-deficient mice; format: in vivo, mouse; conditions: rm-IL-33, agonist 125 μg days 1-3
# Procedure: FIGS. 4A-4E: α7nAChR expression is critical for GTS-21 action on ILC2s in vivo. BALB/cByJ and α7nAChR^−/− mice were intranasally challenged with rm-IL-33 or PBS, and also given α7nAChR agonist (125 μg) or PBS on days 1-3. Measurement of lung function and analysis of BAL followed on day 4. (FIG. 4A) Lung resistance. (FIG. 4B) Total number of eosinophils in BALF. (FIG. 4C) Rag^−/− GC^−/− mice were received ILC2s from either WT or α7nAChR^−/− mice. After the adoptive transfer, mice were intranasally challenged with rm-IL-33 or PBS; they also received α7nAChR agonist (125 μg) or PBS on days 1-3. Measurement of lung function and analysis of BAL followed on day 4, according to scheme 4C. (FIG. 4D) Lung resistance. (FIG. 4E) Total number of eosinophils in BALF. Data are representative of at least three independent experiments and are presented as means±SEM (n=4; Student's test ***, p<0.001, WT IL-33+α7nAChR agonist vs. α7nAChR^−/− IL-33+α7nAChR agonist).
# To assess whether the previously observed effects of GTS-21 are due to its actions on the α7nAChR, Applicants challenged WT and α7nAChR-deficient mice with or without rm-IL-33, and with or without α7nAChR agonist, for three consecutive days (FIGS. 4A-4B). As expected, in the WT mice, the agonist repressed IL-33-induced AHR and eosinophilic infiltration.
# Mice were intranasally (i.n.) administered carrier-free recombinant mouse IL-33 (BioLegend, San Diego Calif., 0.5 µg per mouse in 50 µL) with or without […] of α7nAChR agonist (kindly provided by Lin Chen) on three consecutive days. Mice were intranasally (i.n.) administered carrier-free recombinant mouse IL-25 (BioLegend, San Diego Calif., 5 µg per mouse in 50 µL) with or without […] of α7nAChR agonist on three consecutive days. For Alternaria alternata experiments, mice were i.n. administered Alternaria alternata (Greer Labs, Lenoir, N.C., 100 μg per mouse in 50 μL) with or without 125 µg α7nAChR agonist for four consecutive days. One day after the last challenge, mice were anesthetized using i.p. injection of ketamine (10 mg mL^−1) and xylazine (1 mg mL^−1). Measurements of airway resistance and dynamic compliance were conducted with the Fine Pointe RC System (Buxco Research Systems, Wilmington, N.C.), in which mice were mechanically ventilated using a modified version as previously described^36,67. Mice were sequentially challenged with aerosolized PBS (baseline), followed by increasing doses of methacholine. Maximum lung resistance (RL) and minimum compliance (Cdyn) values were recorded during a three-minute period after each methacholine challenge.
# Chain of α7 subtype of nAChR (P36544 23-502): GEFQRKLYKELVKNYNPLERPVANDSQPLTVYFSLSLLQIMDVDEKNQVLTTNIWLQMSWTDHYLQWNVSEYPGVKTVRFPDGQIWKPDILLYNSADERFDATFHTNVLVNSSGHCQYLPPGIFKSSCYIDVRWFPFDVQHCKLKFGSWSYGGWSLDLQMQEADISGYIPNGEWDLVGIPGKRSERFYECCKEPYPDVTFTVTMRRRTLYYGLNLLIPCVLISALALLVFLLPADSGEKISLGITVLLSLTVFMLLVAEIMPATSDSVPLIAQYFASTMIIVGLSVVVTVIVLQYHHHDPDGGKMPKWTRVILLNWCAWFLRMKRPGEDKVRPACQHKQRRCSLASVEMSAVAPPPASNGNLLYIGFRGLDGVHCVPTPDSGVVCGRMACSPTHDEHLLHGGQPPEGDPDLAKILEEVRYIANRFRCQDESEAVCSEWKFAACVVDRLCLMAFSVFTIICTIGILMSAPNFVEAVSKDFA
# Chain of α4β2 subtype of nAChR (P43681 29-627 limits assumed): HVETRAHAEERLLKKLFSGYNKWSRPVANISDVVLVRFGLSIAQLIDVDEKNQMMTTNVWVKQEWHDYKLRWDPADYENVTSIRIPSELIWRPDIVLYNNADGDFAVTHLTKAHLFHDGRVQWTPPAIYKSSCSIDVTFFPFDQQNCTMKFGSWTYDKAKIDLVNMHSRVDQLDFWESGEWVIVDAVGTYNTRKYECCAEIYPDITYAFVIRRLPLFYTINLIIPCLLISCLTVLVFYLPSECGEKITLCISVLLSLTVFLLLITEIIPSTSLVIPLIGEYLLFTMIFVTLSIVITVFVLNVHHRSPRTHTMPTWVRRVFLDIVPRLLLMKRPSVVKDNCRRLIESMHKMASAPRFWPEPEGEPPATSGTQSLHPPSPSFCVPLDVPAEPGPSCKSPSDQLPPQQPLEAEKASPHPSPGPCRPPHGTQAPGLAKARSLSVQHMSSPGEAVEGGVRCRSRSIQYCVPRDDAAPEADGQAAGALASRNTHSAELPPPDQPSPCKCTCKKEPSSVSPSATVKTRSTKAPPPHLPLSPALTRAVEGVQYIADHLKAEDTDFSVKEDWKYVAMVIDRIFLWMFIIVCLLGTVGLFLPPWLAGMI
# Chain of α4β2 subtype of nAChR (P17787 26-502): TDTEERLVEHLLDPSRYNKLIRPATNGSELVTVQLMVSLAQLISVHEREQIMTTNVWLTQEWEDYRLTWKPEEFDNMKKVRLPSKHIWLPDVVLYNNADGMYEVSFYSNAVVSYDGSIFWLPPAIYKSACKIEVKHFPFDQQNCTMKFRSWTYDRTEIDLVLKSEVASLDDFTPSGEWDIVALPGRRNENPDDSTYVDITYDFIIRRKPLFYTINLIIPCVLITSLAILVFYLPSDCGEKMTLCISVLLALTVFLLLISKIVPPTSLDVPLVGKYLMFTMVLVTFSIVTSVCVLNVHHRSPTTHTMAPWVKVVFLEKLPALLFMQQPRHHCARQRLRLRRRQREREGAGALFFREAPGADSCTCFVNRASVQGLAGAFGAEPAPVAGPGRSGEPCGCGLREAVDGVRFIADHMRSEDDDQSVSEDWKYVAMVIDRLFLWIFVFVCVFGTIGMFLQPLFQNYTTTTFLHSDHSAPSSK
smiles,measurement,setting,value
"COc1ccc(/C=C2\CCCN=C2c2cccnc2)c(OC)c1 [GTS-21, 3-[(3E)-3-[(2,4-dimethoxyphenyl)methylidene]-5,6-dihydro-4H-pyridin-2-yl]pyridine]",binding to the α4β2 subtype,α4β2 subtype of nAChR,binds
same,binding to the α7 subtype,α7 subtype of nAChR,binds
same,IL-33-induced AHR,[1]; WT mice,repressed
same,eosinophilic infiltration,[1]; WT mice,repressed
same,IL-33-induced AHR,[1]; α7nAChR-deficient mice,affected neither AHR nor eosinophilia
same,eosinophilia,[1]; α7nAChR-deficient mice,affected neither AHR nor eosinophilia
